Measurements published in ChEMBL document CHEMBL5465560, “Selectivity Literature for EUbOPEN Chemogenomic Library” (2024).

Assays:
[1] = target: Mitogen-activated protein kinase 7 (Homo sapiens) (UniProt Q13164); assay: Selectivity interaction (Ambit KINOMEscan and KiNATiv profiling in Jurkat cells) EUB0000090b MAPK7; type: cell-based; details: at 1 µM
[2] = target: T1, Mitogen-activated protein kinase kinase kinase 2 (Homo sapiens) (UniProt Q9Y2U5); assay: Selectivity interaction (KinomeScan (DiscoverX)) EUB0000695a MAP3K2; details: at 100 nM
T1 sequence (whole entry): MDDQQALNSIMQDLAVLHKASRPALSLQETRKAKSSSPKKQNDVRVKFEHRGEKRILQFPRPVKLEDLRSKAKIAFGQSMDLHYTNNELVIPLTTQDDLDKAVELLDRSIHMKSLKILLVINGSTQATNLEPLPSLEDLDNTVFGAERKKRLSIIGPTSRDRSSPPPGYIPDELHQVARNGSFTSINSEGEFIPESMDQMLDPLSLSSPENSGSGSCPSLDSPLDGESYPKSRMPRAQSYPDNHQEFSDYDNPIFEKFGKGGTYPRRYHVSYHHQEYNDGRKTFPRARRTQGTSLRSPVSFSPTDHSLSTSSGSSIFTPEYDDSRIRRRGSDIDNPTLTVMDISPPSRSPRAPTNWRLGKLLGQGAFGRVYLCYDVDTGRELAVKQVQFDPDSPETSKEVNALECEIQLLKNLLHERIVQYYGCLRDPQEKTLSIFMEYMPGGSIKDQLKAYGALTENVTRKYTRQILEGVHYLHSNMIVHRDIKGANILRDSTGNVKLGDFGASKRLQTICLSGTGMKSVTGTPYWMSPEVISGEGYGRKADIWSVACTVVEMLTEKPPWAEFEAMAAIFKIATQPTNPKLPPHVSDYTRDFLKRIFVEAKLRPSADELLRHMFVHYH

[3] = target: T2, Serine/threonine-protein kinase ULK3 (Homo sapiens) (UniProt Q6PHR2); assay: Selectivity interaction (KinomeScan (DiscoverX)) EUB0000595a ULK3; details: at 10 µM
T2 sequence (whole entry): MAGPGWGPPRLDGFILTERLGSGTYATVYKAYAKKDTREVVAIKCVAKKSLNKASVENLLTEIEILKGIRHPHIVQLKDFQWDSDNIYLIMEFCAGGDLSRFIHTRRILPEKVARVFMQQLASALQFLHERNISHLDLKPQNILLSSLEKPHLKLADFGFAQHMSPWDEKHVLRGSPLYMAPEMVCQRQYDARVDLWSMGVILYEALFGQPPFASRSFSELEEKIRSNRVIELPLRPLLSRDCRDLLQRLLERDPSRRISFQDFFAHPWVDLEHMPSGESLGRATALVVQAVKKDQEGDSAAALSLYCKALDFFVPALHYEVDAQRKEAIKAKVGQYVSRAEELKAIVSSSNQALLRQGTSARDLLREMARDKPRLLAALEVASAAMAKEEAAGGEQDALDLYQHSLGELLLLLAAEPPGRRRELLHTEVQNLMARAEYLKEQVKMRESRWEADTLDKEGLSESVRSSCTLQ

[4] = target: Beta-1 adrenergic receptor (Homo sapiens, UniProt P08588); assay: Selectivity interaction (GPCR panel (PDSP screen)) EUB0001079a ADRB1; details: at 10 µM
[5] = target: T3, Serine/threonine-protein kinase 17A (Homo sapiens) (UniProt Q9UEE5); assay: Selectivity interaction (ProQinase) EUB0000171b STK17A
T3 sequence (whole entry): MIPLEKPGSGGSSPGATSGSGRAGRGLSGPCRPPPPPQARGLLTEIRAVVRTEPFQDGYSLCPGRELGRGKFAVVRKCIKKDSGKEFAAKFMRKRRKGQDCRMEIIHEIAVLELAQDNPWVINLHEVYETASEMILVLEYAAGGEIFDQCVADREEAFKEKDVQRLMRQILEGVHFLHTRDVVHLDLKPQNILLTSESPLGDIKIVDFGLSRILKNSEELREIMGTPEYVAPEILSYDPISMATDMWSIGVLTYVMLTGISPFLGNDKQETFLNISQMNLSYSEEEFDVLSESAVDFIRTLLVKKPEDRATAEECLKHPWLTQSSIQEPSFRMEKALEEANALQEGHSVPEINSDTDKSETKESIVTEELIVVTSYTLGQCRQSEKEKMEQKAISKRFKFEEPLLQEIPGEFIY

[6] = target: T4, Cyclin-dependent kinase-like 5 (Homo sapiens) (UniProt O76039); assay: Selectivity interaction (KinomeScan (DiscoverX)) EUB0000092b CDKL5; details: at 10 µM
T4 sequence (whole entry): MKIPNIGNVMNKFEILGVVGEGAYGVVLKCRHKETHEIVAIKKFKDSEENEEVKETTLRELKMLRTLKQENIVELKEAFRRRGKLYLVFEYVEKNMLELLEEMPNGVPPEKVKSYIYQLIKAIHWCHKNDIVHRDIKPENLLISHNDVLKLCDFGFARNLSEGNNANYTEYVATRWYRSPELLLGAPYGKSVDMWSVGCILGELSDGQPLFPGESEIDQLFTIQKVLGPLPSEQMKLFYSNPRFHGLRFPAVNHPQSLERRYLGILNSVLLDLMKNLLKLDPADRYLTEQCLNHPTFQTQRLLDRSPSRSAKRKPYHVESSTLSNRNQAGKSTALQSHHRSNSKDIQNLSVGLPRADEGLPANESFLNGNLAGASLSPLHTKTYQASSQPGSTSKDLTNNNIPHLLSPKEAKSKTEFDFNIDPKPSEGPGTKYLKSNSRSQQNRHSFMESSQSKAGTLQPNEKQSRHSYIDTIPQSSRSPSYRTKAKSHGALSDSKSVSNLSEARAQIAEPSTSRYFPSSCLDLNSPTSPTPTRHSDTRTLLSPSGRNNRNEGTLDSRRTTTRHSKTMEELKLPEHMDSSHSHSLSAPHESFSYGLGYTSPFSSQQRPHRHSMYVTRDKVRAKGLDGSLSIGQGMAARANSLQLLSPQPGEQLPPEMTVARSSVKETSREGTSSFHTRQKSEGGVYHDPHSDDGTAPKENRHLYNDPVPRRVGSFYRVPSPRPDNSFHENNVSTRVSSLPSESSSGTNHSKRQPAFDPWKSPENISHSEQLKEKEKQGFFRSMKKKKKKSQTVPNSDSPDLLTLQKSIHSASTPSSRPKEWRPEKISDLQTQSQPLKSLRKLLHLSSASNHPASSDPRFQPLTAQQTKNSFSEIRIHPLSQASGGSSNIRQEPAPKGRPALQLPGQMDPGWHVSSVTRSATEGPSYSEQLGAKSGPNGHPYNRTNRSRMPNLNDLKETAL

[7] = target: Cyclin-dependent kinase 7 (Homo sapiens, UniProt P50613); assay: Selectivity interaction (KinomeScan (DiscoverX)) EUB0000607a CDK7; details: at 10 µM
Sequence of Cyclin-dependent kinase 7 (P50613 whole entry): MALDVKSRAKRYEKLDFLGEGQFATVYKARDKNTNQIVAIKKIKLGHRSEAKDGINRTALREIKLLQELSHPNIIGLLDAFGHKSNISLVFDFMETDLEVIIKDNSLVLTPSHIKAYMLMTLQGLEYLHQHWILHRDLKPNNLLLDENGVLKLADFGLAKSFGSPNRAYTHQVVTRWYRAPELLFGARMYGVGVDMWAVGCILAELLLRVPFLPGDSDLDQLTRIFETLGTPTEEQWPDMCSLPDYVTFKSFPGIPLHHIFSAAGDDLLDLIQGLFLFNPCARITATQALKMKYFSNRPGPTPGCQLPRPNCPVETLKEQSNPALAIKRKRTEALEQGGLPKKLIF

Sequence of Beta-1 adrenergic receptor (P08588 whole entry, looked up): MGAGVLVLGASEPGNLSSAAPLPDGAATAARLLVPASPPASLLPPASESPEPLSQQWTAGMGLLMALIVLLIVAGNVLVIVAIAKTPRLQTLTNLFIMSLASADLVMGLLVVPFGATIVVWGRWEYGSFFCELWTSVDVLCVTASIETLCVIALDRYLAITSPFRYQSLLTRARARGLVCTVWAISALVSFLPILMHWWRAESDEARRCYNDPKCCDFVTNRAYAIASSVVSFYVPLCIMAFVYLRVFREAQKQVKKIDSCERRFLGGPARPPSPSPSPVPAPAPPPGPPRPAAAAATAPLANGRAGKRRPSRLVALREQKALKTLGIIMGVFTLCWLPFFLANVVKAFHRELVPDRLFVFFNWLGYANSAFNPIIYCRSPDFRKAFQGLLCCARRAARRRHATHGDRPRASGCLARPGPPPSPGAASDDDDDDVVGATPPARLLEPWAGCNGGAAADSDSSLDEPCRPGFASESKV
Sequence of Mitogen-activated protein kinase 7 (Homo sapiens) (Q13164 2-816 limits assumed): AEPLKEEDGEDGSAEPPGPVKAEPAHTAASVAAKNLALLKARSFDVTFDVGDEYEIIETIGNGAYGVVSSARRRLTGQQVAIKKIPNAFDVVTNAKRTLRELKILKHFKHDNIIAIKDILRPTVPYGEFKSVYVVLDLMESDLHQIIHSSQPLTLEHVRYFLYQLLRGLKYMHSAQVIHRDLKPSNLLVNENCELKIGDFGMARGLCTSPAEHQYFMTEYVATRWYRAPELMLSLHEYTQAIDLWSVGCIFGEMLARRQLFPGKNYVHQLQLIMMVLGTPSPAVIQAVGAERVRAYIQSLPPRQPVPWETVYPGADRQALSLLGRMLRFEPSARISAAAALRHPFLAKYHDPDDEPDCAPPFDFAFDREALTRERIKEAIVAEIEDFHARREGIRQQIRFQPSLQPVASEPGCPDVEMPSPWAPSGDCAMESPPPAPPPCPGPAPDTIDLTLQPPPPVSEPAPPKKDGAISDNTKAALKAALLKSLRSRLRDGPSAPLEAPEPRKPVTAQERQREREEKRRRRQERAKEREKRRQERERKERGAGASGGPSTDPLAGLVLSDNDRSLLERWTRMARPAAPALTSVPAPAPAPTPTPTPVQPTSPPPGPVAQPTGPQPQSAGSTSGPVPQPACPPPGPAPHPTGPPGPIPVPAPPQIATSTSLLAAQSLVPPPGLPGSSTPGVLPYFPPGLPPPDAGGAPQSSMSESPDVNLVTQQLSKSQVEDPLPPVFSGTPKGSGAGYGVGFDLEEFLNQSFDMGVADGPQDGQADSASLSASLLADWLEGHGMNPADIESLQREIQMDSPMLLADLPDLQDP

CN(C)C/C=C/C(=O)Nc1ccc(C(=O)N2CCCC(Nc3ncc(Cl)c(-c4c[nH]c5ccccc45)n3)C2)cc1 (stereo not drawn)
% of control [1]: 88%

Cc1cc(F)c(C(=O)Nc2cccc(-c3nncn3C(C)C)n2)cc1-n1cnc(C2CC2)c1
% of control [2]: 100%

COCC(=O)NC/C=C/c1ccc2ncnc(Nc3ccc(Oc4ccc(C)nc4)c(C)c3)c2c1 [CP-724714]
% of control [3]: 68%

Nc1cnc(N2CCc3cc(S(=O)(=O)Nc4c(F)cc(Cl)cc4F)cc(N4CCCC4=O)c32)nc1 [TP-020n]
% of inhibition [4]: 8.84%

C=CC(=O)Nc1cccc(C(=O)Nc2ccc(Nc3cc(-c4[nH]c(SC)nc4C)ccn3)cc2)c1
% of control ([5]; at 1 µM): 78% | % of control ([5]; at 5 µM): 35%

CCC(=O)N1CCN(c2ccc(-n3c(=O)ccc4cnc5ccc(-c6cnc7ccccc7c6)cc5c43)cc2C(F)(F)F)CC1
% of control [6]: 100%

CNC(=O)Nc1ccc(-c2nc(N3CC4CCC(C3)O4)c3cnn(C4CCC5(CC4)OCCO5)c3n2)cc1
% of control [7]: 88%
